PubChem BioAssay (NCI)
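Growth conditions: 96-well plates. Treatment: test compound, 48 hours, 5 concentrations. Analysis: linear interpolation between bracketing concentrations; unreached endpoints set to highest concentration. At the GI50, growth is halved. At the TGI there is no net growth.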

Assays:
Test in all cases: NCI anticancer screen, dose series, 48 h
SNB-75 CNS = test system: SNB-75 CNS
SF-268 CNS = test system: SF-268 CNS
HS 578T breast = test system: HS 578T breast
OVCAR-8 ovarian = test system: OVCAR-8 ovarian
NCI-H460 lung = test system: NCI-H460 lung
HCC-2998 colon = test system: HCC-2998 colon
LOX IMVI melanoma = test system: LOX IMVI melanoma
NCI-H522 lung = test system: NCI-H522 lung
MCF7 breast = test system: MCF7 breast
HOP-92 NSCLC = test system: HOP-92 NSCLC
NCI-H226 lung = test system: NCI-H226 lung
SF-539 CNS = test system: SF-539 CNS
SK-OV-3 ovarian = test system: SK-OV-3 ovarian
OVCAR-3 ovarian = test system: OVCAR-3 ovarian
PC-3 prostate = test system: PC-3 prostate
UACC-62 melanoma = test system: UACC-62 melanoma
HT29 colon = test system: HT29 colon
SK-MEL-5 melanoma = test system: SK-MEL-5 melanoma
TK-10 renal = test system: TK-10 renal
CAKI-1 renal = test system: CAKI-1 renal
NCI-H23 lung = test system: NCI-H23 lung
U251 CNS = test system: U251 CNS
EKVX NSCLC = test system: EKVX NSCLC
UACC-257 melanoma = test system: UACC-257 melanoma
IGROV1 ovarian = test system: IGROV1 ovarian
MDA-MB-468 breast = test system: MDA-MB-468 breast
A549 NSCLC = test system: A549 NSCLC
HOP-62 NSCLC = test system: HOP-62 NSCLC
SN12C renal = test system: SN12C renal
COLO 205 colon = test system: COLO 205 colon
M14 melanoma = test system: M14 melanoma
K-562 leukemia = test system: K-562 leukemia
BT-549 breast = test system: BT-549 breast
SW-620 colon = test system: SW-620 colon
ACHN renal = test system: ACHN renal
MOLT-4 leukemia = test system: MOLT-4 leukemia
OVCAR-4 ovarian = test system: OVCAR-4 ovarian
SK-MEL-2 melanoma = test system: SK-MEL-2 melanoma
MALME-3M melanoma = test system: MALME-3M melanoma
HL-60(TB) leukemia = test system: HL-60(TB) leukemia
OVCAR-5 ovarian = test system: OVCAR-5 ovarian
DU-145 prostate = test system: DU-145 prostate
A498 renal = test system: A498 renal
MDA-MB-435 = test system: MDA-MB-435
786-0 renal = test system: 786-0 renal
SK-MEL-28 melanoma = test system: SK-MEL-28 melanoma
HCT-15 colon = test system: HCT-15 colon
SF-295 CNS = test system: SF-295 CNS
RXF 393 renal = test system: RXF 393 renal
KM12 colon = test system: KM12 colon

C=C1CC[C@@H]2[C@]3(C)COC(c4cn[nH]c4-c4cccc(Br)c4)O[C@@H]3CC[C@@]2(C)[C@@H]1C/C=C1/C(=O)OCC1O (stereo not given in full) was tested. Which GI50 (SNB-75 CNS) did it give?
Its GI50 is 2.45 µM.

And the TGI (SNB-75 CNS)?
The TGI was 7.86 µM.

What about the GI50 (SF-268 CNS) of the same compound?
The GI50 was 12.6 µM.

And the TGI (SF-268 CNS)?
Its TGI is 40.3 µM.

What about the GI50 (HS 578T breast) of the same compound?
The GI50 was 5.27 µM.

And the TGI (HS 578T breast)?
The TGI was 59.4 µM.

What about the GI50 (OVCAR-8 ovarian) of the same compound?
Its GI50 is 1.88 µM.

What about the TGI (OVCAR-8 ovarian) of the same compound?
Its TGI is 6.17 µM.

What about the GI50 (NCI-H460 lung) of the same compound?
Its GI50 is 2.43 µM.

And the TGI (NCI-H460 lung)?
Its TGI is 6.29 µM.

And the GI50 (HCC-2998 colon)?
The GI50 was 1.87 µM.

What about the TGI (HCC-2998 colon) of the same compound?
Its TGI is 3.53 µM.

What about the GI50 (LOX IMVI melanoma) of the same compound?
The GI50 was 1.39 µM.

What about the TGI (LOX IMVI melanoma) of the same compound?
Its TGI is 2.7 µM.

What about the GI50 (NCI-H522 lung) of the same compound?
The GI50 was 1.9 µM.

What about the TGI (NCI-H522 lung) of the same compound?
Its TGI is 3.77 µM.

And the GI50 (MCF7 breast)?
The GI50 was 1.28 µM.

What about the TGI (MCF7 breast) of the same compound?
Its TGI is 3.95 µM.

And the GI50 (HOP-92 NSCLC)?
Its GI50 is 2.21 µM.

What about the TGI (HOP-92 NSCLC) of the same compound?
The TGI was 5.1 µM.

What about the GI50 (NCI-H226 lung) of the same compound?
The GI50 was 1.62 µM.

What about the TGI (NCI-H226 lung) of the same compound?
Its TGI is 3.09 µM.

And the GI50 (SF-539 CNS)?
The GI50 was 1.74 µM.

What about the TGI (SF-539 CNS) of the same compound?
The TGI was 3.22 µM.

What about the GI50 (SK-OV-3 ovarian) of the same compound?
The GI50 was 5.8 µM.

What about the TGI (SK-OV-3 ovarian) of the same compound?
Its TGI is 21.4 µM.

What about the GI50 (OVCAR-3 ovarian) of the same compound?
The GI50 was 2.02 µM.

And the TGI (OVCAR-3 ovarian)?
The TGI was 3.99 µM.

What about the GI50 (PC-3 prostate) of the same compound?
Its GI50 is 3.07 µM.

What about the TGI (PC-3 prostate) of the same compound?
Its TGI is 11.6 µM.

What about the GI50 (UACC-62 melanoma) of the same compound?
Its GI50 is 1.55 µM.

And the TGI (UACC-62 melanoma)?
The TGI was 3.15 µM.

What about the GI50 (HT29 colon) of the same compound?
The GI50 was 2.1 µM.

What about the TGI (HT29 colon) of the same compound?
The TGI was 4.82 µM.

What about the GI50 (SK-MEL-5 melanoma) of the same compound?
Its GI50 is 1.75 µM.

What about the TGI (SK-MEL-5 melanoma) of the same compound?
The TGI was 3.19 µM.

And the GI50 (TK-10 renal)?
The GI50 was 5.1 µM.

And the TGI (TK-10 renal)?
Its TGI is 18.9 µM.

And the GI50 (CAKI-1 renal)?
Its GI50 is 2.77 µM.

What about the TGI (CAKI-1 renal) of the same compound?
The TGI was 7.05 µM.

What about the GI50 (NCI-H23 lung) of the same compound?
Its GI50 is 1.84 µM.

And the TGI (NCI-H23 lung)?
The TGI was 3.62 µM.

And the GI50 (U251 CNS)?
The GI50 was 1.81 µM.

What about the TGI (U251 CNS) of the same compound?
The TGI was 3.36 µM.

What about the GI50 (EKVX NSCLC) of the same compound?
Its GI50 is 2.15 µM.

And the TGI (EKVX NSCLC)?
Its TGI is 4.81 µM.

What about the GI50 (UACC-257 melanoma) of the same compound?
Its GI50 is 2.85 µM.

What about the TGI (UACC-257 melanoma) of the same compound?
The TGI was 9.7 µM.

What about the GI50 (IGROV1 ovarian) of the same compound?
Its GI50 is 2.72 µM.

What about the TGI (IGROV1 ovarian) of the same compound?
The TGI was 6.46 µM.

What about the GI50 (MDA-MB-468 breast) of the same compound?
Its GI50 is 1.61 µM.

What about the TGI (MDA-MB-468 breast) of the same compound?
Its TGI is 3.22 µM.

What about the GI50 (A549 NSCLC) of the same compound?
The GI50 was 3.37 µM.

And the TGI (A549 NSCLC)?
Its TGI is 14.1 µM.

What about the GI50 (HOP-62 NSCLC) of the same compound?
Its GI50 is 3.78 µM.

What about the TGI (HOP-62 NSCLC) of the same compound?
The TGI was 13.7 µM.

And the GI50 (SN12C renal)?
The GI50 was 2.03 µM.

And the TGI (SN12C renal)?
The TGI was 4.78 µM.

And the GI50 (COLO 205 colon)?
Its GI50 is 2.18 µM.

And the TGI (COLO 205 colon)?
Its TGI is 4.48 µM.

And the GI50 (M14 melanoma)?
The GI50 was 2.52 µM.

And the TGI (M14 melanoma)?
The TGI was 7.22 µM.

What about the GI50 (K-562 leukemia) of the same compound?
Its GI50 is 1.93 µM.

And the TGI (K-562 leukemia)?
The TGI was 8.65 µM.

And the GI50 (BT-549 breast)?
The GI50 was 1.44 µM.

What about the TGI (BT-549 breast) of the same compound?
Its TGI is 3 µM.

What about the GI50 (SW-620 colon) of the same compound?
Its GI50 is 2.22 µM.

What about the TGI (SW-620 colon) of the same compound?
The TGI was 5.05 µM.

What about the GI50 (ACHN renal) of the same compound?
The GI50 was 1.95 µM.

What about the TGI (ACHN renal) of the same compound?
Its TGI is 3.97 µM.

What about the GI50 (MOLT-4 leukemia) of the same compound?
The GI50 was 2.29 µM.

What about the TGI (MOLT-4 leukemia) of the same compound?
The TGI was 18.7 µM.

And the GI50 (OVCAR-4 ovarian)?
Its GI50 is 4.47 µM.

And the TGI (OVCAR-4 ovarian)?
The TGI was 30.1 µM.

What about the GI50 (SK-MEL-2 melanoma) of the same compound?
The GI50 was 2.55 µM.

And the TGI (SK-MEL-2 melanoma)?
The TGI was 5.59 µM.

What about the GI50 (MALME-3M melanoma) of the same compound?
Its GI50 is 1.93 µM.

What about the TGI (MALME-3M melanoma) of the same compound?
Its TGI is 4.25 µM.

And the GI50 (HL-60(TB) leukemia)?
Its GI50 is 1.87 µM.

And the TGI (HL-60(TB) leukemia)?
Its TGI is 7.43 µM.

What about the GI50 (OVCAR-5 ovarian) of the same compound?
The GI50 was 2.14 µM.

What about the TGI (OVCAR-5 ovarian) of the same compound?
Its TGI is 4.72 µM.

What about the GI50 (DU-145 prostate) of the same compound?
The GI50 was 3.08 µM.

And the TGI (DU-145 prostate)?
The TGI was 9.43 µM.

What about the GI50 (A498 renal) of the same compound?
Its GI50 is 20.8 µM.

And the TGI (A498 renal)?
The TGI was 35.4 µM.

What about the GI50 (MDA-MB-435) of the same compound?
Its GI50 is 3.4 µM.

And the TGI (MDA-MB-435)?
The TGI was 14.1 µM.

What about the GI50 (786-0 renal) of the same compound?
The GI50 was 1.92 µM.

And the TGI (786-0 renal)?
The TGI was 3.6 µM.

What about the GI50 (SK-MEL-28 melanoma) of the same compound?
Its GI50 is 1.93 µM.

And the TGI (SK-MEL-28 melanoma)?
The TGI was 3.83 µM.

What about the GI50 (HCT-15 colon) of the same compound?
Its GI50 is 1.66 µM.

And the TGI (HCT-15 colon)?
The TGI was 3.78 µM.

And the GI50 (SF-295 CNS)?
The GI50 was 1.83 µM.

And the TGI (SF-295 CNS)?
The TGI was 3.99 µM.

And the GI50 (RXF 393 renal)?
The GI50 was 1.81 µM.

What about the TGI (RXF 393 renal) of the same compound?
The TGI was 3.26 µM.

And the GI50 (KM12 colon)?
The GI50 was 2.44 µM.

And the TGI (KM12 colon)?
Its TGI is 6.13 µM.
